# From US20240301156A1, “FOAMABLE RESIN COMPOSITION, FOAM BODY, METHOD FOR PRODUCING FOAM BODY, AND FOAMABLE CURING AGENT” (MITSUBISHI GAS CHEMICAL COMPANY, INC., priority 2021, published 2024)
# Key:
# [1] = Maximum carbon dioxide (CO2) release temperature of amine compound (DSC); format: physicochemical; conditions: amine left in air at 23° C., 50% RH for 24 hours; DSC 23 to 250° C., 10° C./minute, nitrogen
# Description: The amine compound (a1) with carbon dioxide absorbed is heated at a heating rate of 10° C./minute from 23° C. to 250° C., and the temperature at which the amount of heat absorbed due to desorption of carbon dioxide reaches the maximum is measured, and the temperature is defined as the maximum carbon dioxide release temperature. In this regard the amine compound (a1) with carbon dioxide absorbed may be prepared by leaving 5 mmol of the amine compound (a1) to stand in air at 23° C. and 50% RH for 24 hours.
# A carbon dioxide detector and a Petri dish were placed in an openable desiccator (inner dimension: 370 mm×260 mm×272 mm). Subsequently the amine compound (5 mmol) was added to the Petri dish in the desiccator and the door was immediately closed to leave the amine compound to stand in the desiccator in an air environment at 23° C. and 50% RH for 24 hours. The initial concentration of carbon dioxide was adjusted to about 400 ppm.
# (§1) Then the amine compound was removed from the desiccator to give an amine compound with carbon dioxide absorbed. The maximum carbon dioxide release temperature of the amine compound with carbon dioxide absorbed was measured by subjecting the amine compound to DSC as described below. First, differential scanning calorimetry of the amine compound was performed under conditions of a temperature range of 23 to 250° C., a heating rate of 10° C./minute and a nitrogen atmosphere using a differential thermogravimeter (product name DTG-60 made by Shimadzu Corporation). The temperature at which the amount of heat absorbed due to the desorption of carbon dioxide was the maximum was calculated from the DSC curve obtained, and the temperature was determined as the maximum carbon dioxide release temperature of the amine compound.
# [2] = Maximum endothermic temperature of amine compound (DSC); format: physicochemical; conditions: DSC 23 to 350° C., 10° C./minute, nitrogen; evaporation of the amine compound
# Description: The amine compound (a1) is heated at a heating rate of 10° C./minute from 23° C. to 350° C. and the temperature at which the amount of heat absorbed due to evaporation of the amine compound (a1) reaches the maximum is measured, and the temperature is defined as the maximum endothermic temperature of the amine compound (a1).
# as §1, with “The” for “Then the amine compound was removed from the desiccator to give an amine compound with carbon dioxide absorbed. The”, “endothermic” for “carbon dioxide release”, “compound” for “compound with carbon dioxide absorbed”, “350°” for “250°”, “evaporation” for “desorption”, “the amine compound” for “carbon dioxide”
# [3] = Amine value of amine compound (JIS K7237-1995 titration); format: physicochemical; conditions: 0.1 N perchloric acid-acetic acid titration
# Description: The amine value was measured by the following measurement method according to JIS K7237-1995. • (1) 0.1 g of the amine compound was dissolved in 20 mL of acetic acid. • (2) The amine value was calculated by titrating the solution prepared in (1) above with 0.1 N perchloric acid-acetic acid solution using an automatic potentiometric titrator (AT-610 made by Kyoto Electronics Manufacturing Co., Ltd.) (Acid Dissociation Constant (pKa) of Amine Compound)
# [4] = Absorption of carbon dioxide into amine compound: percentage increase of mass; format: physicochemical; conditions: amine left to stand in air at 23° C. and 50% RH for a week
# Description: An amine compound, MXDA (40 mmol), was put in a container and left to stand in an air environment at 23° C. and 50% RH for a week. By doing so MXDA and carbon dioxide in the air were reacted to give a carbonate of MXDA. At that stage, to suppress uneven reaction, the container in which the amine compound was placed was shaken as necessary so as not to leave unreacted MXDA.
# Next, increase of the mass of MXDA was measured and the percentage increase of the mass of the amine compound was calculated by the following equation.
# Percentage increase of mass of amine compound [% by mass]=100×amount of increase of mass of amine compound (g)/(initial mass of amine compound (g)+amount of increase of mass of amine compound (g))
# [5] = Acid dissociation constant (pKa) of amine compound, acid-base titration; conditions: purified water
# Description: The acid dissociation constant of the amine compound (a1) is measured by the following measurement method based on acid-base titration. • (1) 0.2 g of the amine compound (a1) is dissolved in 30 mL of purified water. • (2) The acid dissociation constant (pKa) is calculated by titrating the solution prepared in (1) above with 0.1 N perchloric acid-acetic acid solution using an automatic potentiometric titrator (e.g., AT-610 made by Kyoto Electronics Manufacturing Co., Ltd.).
# The acid dissociation constant of the amine compound was measured by the following measurement method. • (1) 0.2 g of the amine compound was dissolved in 30 mL of purified water. • (2) The acid dissociation constant (pKa) was calculated by titrating the solution prepared in (1) above with 0.1 N perchloric acid-acetic acid solution using an automatic potentiometric titrator (AT-610 made by Kyoto Electronics Manufacturing Co., Ltd.).
# The temperature in the measurement was 25±2° C.
# [6] = physchem
Compound,Maximum CO2 release temperature [1],Maximum endothermic temperature [2],Amine value [3],Percentage increase of mass [4],pKa [5],pKa [6]
"NCc1cccc(CN)c1 [MXDA, metaxylylenediamine]",135.5 °C,183.5 °C,824 mg KOH/g,24.1 % by mass,–,–
"NCCN1CCNCC1 [AEP, N-(2-aminoethyl)piperazine]",81.9 °C,140.2 °C,1303 mg KOH/g,43.7 % by mass,8.9,–
"NC1CCC(CC2CCC(N)CC2)CC1 (centres unmarked) [PACM, 4,4′-methylenebis(cyclohexylamine)]",53.0 °C,218.5 °C,533 mg KOH/g,12.2 % by mass,–,10.3
"NCC1CCCC(CN)C1 (centres unmarked) [1,3-BAC, 1,3-bis(aminomethyl)cyclohexane]",125.7 °C,160.9 °C,789 mg KOH/g,25.9 % by mass,–,–
"CC1(C)CC(N)CC(C)(CN)C1 (centres unmarked) [IPDA, isophoronediamine]",114.4 °C,168.8 °C,659 mg KOH/g,23.5 % by mass,10.4,–
